Data on five compounds can be found in PubChem BioAssay AID1963450 (Molecular Pharmacology Branch, DTP, NCI, 2024).

SMILES strings stand for the structures. “And” between values parts separate entries of the source, which are not always exact repeats. Equal entries are not always repeated. A value given as a limit tells only on which side of the number the result lay.

The test system of the test is 556581-035-R-J1-PDC complex spheroid growth. In words: Anticancer human tumor 556581-035-R-J1-PDC patient-derived ovarian carcinoma cell line growth inhibition [Asc]. The following applies: for viability, T/C: stronger effect = lower value. The procedure, abridged: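 Tumor cells were grown as complex spheroids with human endothelial cells (HUVEC) and human mesenchymal stem cells as stroma. Agents were tested alone and in combination, in half-log steps down from the clinical Cmax, or from 10 microM where Cmax was unknown.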

[1] abbreviates: curve of first compound, second compound 0.1 µM.
Setting [2] is: curve of first compound, second compound 0.316 µM.
Setting [3] is: curve of first compound, second compound 1 µM.
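Also: spheroids exposed to agents for 7 days before viability read.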

By IC50 is commonly meant the concentration at which inhibition is half-maximal. One may read the viability, T/C as the result in the treated group divided by that in the control group, in per cent. Regarding `Cc1nc(N2CCC3(CC2)COC(C)C3N)c(CO)nc1Sc1ccnc(N)c1Cl` (stereo not drawn) + CNC(C)C(=O)NC1CN(S(=O)(=O)c2cccc(S(=O)(=O)N3CCC4CCC(C(=O)NC(c5ccccc5)c5ccccc5)N4C(=O)C(NC(=O)C(C)NC)C3)c2)CCC2CCC(C(=O)NC(c3ccccc3)c3ccccc3)N2C1=O, the IC50 runs as follows: (curve of first compound, second compound 0.00316 µM) > 3000 nM; (curve of first compound, second compound 0.01 µM) > 3000 nM; (curve of first compound, second compound 0.0316 µM) 1960 nM; under setting [1], 1210 nM; under setting [2], 278 nM; under setting [3], 184 nM. For the same compound, the viability, T/C reads like this: (second compound 0.00316 µM, first compound 0.00949 µM) 107%; (second compound 0.00316 µM, first compound 0.03 µM) 95.9%; (second compound 0.00316 µM, first compound 0.0949 µM) 90.2%; (second compound 0.00316 µM, first compound 0.3 µM) 79.4%; (second compound 0.00316 µM, first compound 0.949 µM) 80%; (second compound 0.00316 µM, first compound 3 µM) 49.1%. For the same compound, the viability, T/C is 107% (second compound 0.01 µM, first compound 0.00949 µM); 94.5% (second compound 0.01 µM, first compound 0.03 µM); 76% (second compound 0.01 µM, first compound 0.0949 µM); 73.8% (second compound 0.01 µM, first compound 0.3 µM); 64.9% (second compound 0.01 µM, first compound 0.949 µM); 53.2% (second compound 0.01 µM, first compound 3 µM). Moreover, the viability, T/C was 91.4% (second compound 0.0316 µM, first compound 0.00949 µM); 81.8% (second compound 0.0316 µM, first compound 0.03 µM); 75.3% (second compound 0.0316 µM, first compound 0.0949 µM); 58.5% (second compound 0.0316 µM, first compound 0.3 µM); 59% (second compound 0.0316 µM, first compound 0.949 µM); 45.9% (second compound 0.0316 µM, first compound 3 µM). Moreover, the viability, T/C reads like this: (second compound 0.1 µM, first compound 0.00949 µM) 86.3%; (second compound 0.1 µM, first compound 0.03 µM) 78.9%; (second compound 0.1 µM, first compound 0.0949 µM) 71.8%; (second compound 0.1 µM, first compound 0.3 µM) 55.4%; (second compound 0.1 µM, first compound 0.949 µM) 58.4%; (second compound 0.1 µM, first compound 3 µM) 40.4%. The viability, T/C was 74.8% (second compound 0.316 µM, first compound 0.00949 µM); 63.4% (second compound 0.316 µM, first compound 0.03 µM); 59.4% (second compound 0.316 µM, first compound 0.0949 µM); 46.2% (second compound 0.316 µM, first compound 0.3 µM); 46.3% (second compound 0.316 µM, first compound 0.949 µM); 38.3% (second compound 0.316 µM, first compound 3 µM). In addition, the viability, T/C runs as follows: (second compound 1 µM, first compound 0.00949 µM) 61.2%; (second compound 1 µM, first compound 0.03 µM) 61.9%; (second compound 1 µM, first compound 0.0949 µM) 51%; (second compound 1 µM, first compound 0.3 µM) 46.8%; (second compound 1 µM, first compound 0.949 µM) 40.8%; (second compound 1 µM, first compound 3 µM) 28.9%.
On to `O=C(c1cc(Cc2n[nH]c(=O)c3ccccc23)ccc1F)N1CCN(C(=O)C2CC2)CC1` + Cc1c(S(C)(=O)=O)c(-c2cc(F)cc(N3CCN(c4ccc(NS(=O)(=O)c5ccc(NC(CCN6CCC(C(=O)OCCCP(=O)(O)O)CC6)CSc6ccccc6)c(S(=O)(=O)C(F)(F)F)c5)cc4)CC3)c2)c(-c2ccc(Cl)cc2)n1C(C)C, for which the IC50 under setting [1] was > 10000 nM; the IC50 under setting [2] was > 10000 nM; the IC50 under setting [3] was > 10000 nM; the IC50 (curve of first compound, second compound 3.16 µM) is > 10000 nM; the IC50 (curve of first compound, second compound 10 µM) is > 10000 nM. Besides, the viability, T/C reads like this: (second compound 0.1 µM, first compound 0.0316 µM) 87.3%; (second compound 0.1 µM, first compound 0.1 µM) 81.3%; (second compound 0.1 µM, first compound 0.316 µM) 92.9%; (second compound 0.1 µM, first compound 1 µM) 96%; (second compound 0.1 µM, first compound 3.16 µM) 82.3%; (second compound 0.1 µM, first compound 10 µM) 77.2%. Also, the viability, T/C (second compound 0.316 µM, first compound 0.0316 µM) was 73.6%; the viability, T/C (second compound 0.316 µM, first compound 0.1 µM) was 90.2%; the viability, T/C (second compound 0.316 µM, first compound 0.316 µM) is 73.3%; the viability, T/C (second compound 0.316 µM, first compound 1 µM) was 89.8%; the viability, T/C (second compound 0.316 µM, first compound 3.16 µM) was 83.4%; the viability, T/C (second compound 0.316 µM, first compound 10 µM) is 66.8%. The viability, T/C runs as follows: (second compound 1 µM, first compound 0.0316 µM) 70.8%; (second compound 1 µM, first compound 0.1 µM) 69%; (second compound 1 µM, first compound 0.316 µM) 73.4%; (second compound 1 µM, first compound 1 µM) 78%; (second compound 1 µM, first compound 3.16 µM) 66.3%; (second compound 1 µM, first compound 10 µM) 66.4%. Further, the viability, T/C (second compound 3.16 µM, first compound 0.0316 µM) was 63.4%; the viability, T/C (second compound 3.16 µM, first compound 0.1 µM) is 75.6%; the viability, T/C (second compound 3.16 µM, first compound 0.316 µM) was 67.6%; the viability, T/C (second compound 3.16 µM, first compound 1 µM) was 65.8%; the viability, T/C (second compound 3.16 µM, first compound 3.16 µM) is 66.9%; the viability, T/C (second compound 3.16 µM, first compound 10 µM) was 57.9%. For the same compound, the viability, T/C by setting is: (second compound 10 µM, first compound 0.0316 µM) 68%; (second compound 10 µM, first compound 0.1 µM) 80.7%; (second compound 10 µM, first compound 0.316 µM) 60.6%; (second compound 10 µM, first compound 1 µM) 54.2%; (second compound 10 µM, first compound 3.16 µM) 57.1%; (second compound 10 µM, first compound 10 µM) 77.5%.
`NC1CCC(NC2CC2c2ccccc2)CC1` (stereo not drawn): the viability, T/C reads like this: (compound 0.000316 µM) 86.2% and 89% and 93.9%; (compound 0.001 µM) 88.5% and 105% and 92.8%; (compound 0.00316 µM) 92.3% and 95.4% and 89.9%; (compound 0.01 µM) 89.6% and 94.8% and 95.2%; (compound 0.0316 µM) 94.2% and 84.8% and 111%; (compound 0.1 µM) 87.9% and 97.2% and 85%. Further, under “curve of compound”, the IC50 was > 100 nM.
With `C=CC(=O)N1CCN(c2nc(=O)n(-c3c(C)ccnc3C(C)C)c3nc(-c4c(O)cccc4F)c(F)cc23)C(C)C1` (stereo not drawn), the viability, T/C is 111% and 113% and 95.5% (compound 0.0316 µM); 88.9% and 109% and 106% (compound 0.1 µM); 104% and 110% and 108% (compound 0.316 µM); 83.5% and 88.5% and 109% (compound 1 µM); 99% and 99.9% and 109% (compound 3.16 µM); 111% and 76.8% and 107% (compound 10 µM). For the same compound, the IC50 (curve of compound) was > 10000 nM.
As to `Cn1ncnc1[C@H]1c2n[nH]c(=O)c3cc(F)cc(c23)N[C@@H]1c1ccc(F)cc1`, the viability, T/C was 100% and 86.8% and 84.9% (compound 0.000316 µM); 111% and 95.3% and 97% (compound 0.001 µM); 97.7% and 107% and 74.9% (compound 0.00316 µM); 106% and 99.9% and 76.3% (compound 0.01 µM); 105% and 86.6% and 94.5% (compound 0.0316 µM); 99.7% and 85.6% and 94.2% (compound 0.1 µM). Moreover, the IC50 (curve of compound) was > 100 nM.
